Test results taken from BindingDB's records for doi:10.1021/jm00007a018 (Laboratorios Menarini, 1995).

Biological target: Platelet-activating factor receptor (Oryctolagus cuniculus)
Test: […] was measured as the IC50 for aggregation of washed rabbit platelets after incubation for 30 min at 37 C.

SMILES | IC50 [µM]
CCCCCCCCCCCCCCCCC(=O)COCC(COP(=O)([O-])OCC[N+](C)(C)C)OC (centres undefined) [2-methoxy-3-(2-oxooctadecyloxy)propyl-2-trimethylammonioethylphosphorate] | > 200
CCCCCCCCCCCC(CCCCCC)CCCCCCOCC(COP(=O)([O-])OCC[N+](C)(C)C)OC (centres undefined) [2-methoxy-3-(7-hexyloctadecyloxy)propyl-2-trimethylammonioethylphosphorate] | > 200
CCCCCCCCCCCC(C)CCCCCCOCC(COP(=O)([O-])OCC[N+](C)(C)C)OC (centres undefined) [2-methoxy-3-(7-methyloctadecyloxy)propyl-2-trimethylammonioethylphosphorate] | > 200
CCCCCCCCC(CCCCCCOCC(COP(=O)([O-])OCC[N+](C)(C)C)OC)c1ccccc1 (centres undefined) [2-methoxy-3-(7-phenylpentadecyloxy)propyl-2-trimethylammonioethylphosphorate] | > 200
COC(COCCCCCCCCCCC(=O)c1ccccc1)COP(=O)([O-])OCC[N+](C)(C)C (centres undefined) [2-methoxy-3-(11-oxo-11-phenylundecyloxy)propyl-2-trimethylammonioethylphosphorate] | > 200
COC(COCCCCCCCCCCCCCCCCc1ccccc1)COP(=O)([O-])OCC[N+](C)(C)C (centres undefined) [2-methoxy-3-(16-phenylhexadecyloxy)propyl-2-trimethylammonioethylphosphorate] | 20
COC(COCCCCCCCCCCC(O)c1ccccc1)COP(=O)([O-])OCC[N+](C)(C)C (centres undefined) [3-(11-hydroxy-11-phenylundecyloxy)-2-methoxypropyl-2-trimethylammonioethylphosphorate] | > 200
CCCCCCC(CCCCCC)CCCCCCCCCCCOCC(COP(=O)([O-])OCC[N+](C)(C)C)OC (centres undefined) [3-(12-hexyloctadecyloxy)-2-methoxypropyl-2-trimethylammonioethylphosphorate] | 1.5
CCCCCCCCCCCC(=O)CCCCCCOCC(COCCCCC[N+](C)(C)C)OC (centres undefined) [{5-[2-Methoxy-3-(7-oxo-octadecyloxy)-propoxy]-pentyl}-trimethyl-ammonium; bromide] | > 200
